Test results reported in patent US20240425479A1, “HALO-SUBSTITUTED AMINO AZA-HETEROARYL COMPOUNDS AS INHIBITORS OF THE HAEMATOPOIETIC PROGENITOR KINASE 1 (HPK1)” (priority 2021, published 2024).

Target: T1, Recombinant (1-346) HPK1 (h) (Homo sapiens, UniProt Q92918)
T1 construct: Recombinant (1-346) HPK1 (h) is incubated with 8 mM MOPS pH 7.0
T1 sequence (Q92918 1-346): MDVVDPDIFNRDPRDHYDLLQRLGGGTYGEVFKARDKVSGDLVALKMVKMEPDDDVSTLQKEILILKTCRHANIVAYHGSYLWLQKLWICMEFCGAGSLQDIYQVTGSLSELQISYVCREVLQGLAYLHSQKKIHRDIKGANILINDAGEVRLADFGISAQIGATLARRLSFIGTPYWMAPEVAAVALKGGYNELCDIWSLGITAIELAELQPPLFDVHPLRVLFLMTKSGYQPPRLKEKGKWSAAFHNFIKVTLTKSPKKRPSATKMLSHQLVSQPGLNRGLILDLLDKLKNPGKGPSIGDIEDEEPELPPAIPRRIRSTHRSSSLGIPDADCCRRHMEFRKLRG
Experiment: HPK1 human STE kinase enzymatic radiometric assay
Type: biochemical
Conditions: read-out: HPK1 IC50 nM Range
Summary of the method: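 Compounds in 3-fold, 9-point serial dilution; kinase (residues 1-346) phosphorylates myelin basic protein (0.33 mg/mL) using [gamma-33P]-ATP at pH 7.0 (MOPS, EDTA, Mg acetate) for 40 min, room temperature. Acid-quenched mixture filtered onto P30 mats; incorporated radioactivity read by scintillation counting.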

SMILES	IC50 [nM]
Cc1nc2cc(-c3nc(-c4ccc([C@]56C[C@H]5CN(C)C6)cc4)c(F)nc3N)ccc2c(=O)[nH]1 [Example I-74, 7-(3-amino-5-fluoro-6-(4-((1S,5R)-3-methyl-3-azabicyclo[3.1.0]hexan-1-yl)phenyl)pyrazin-2-yl)-2-methylquinazolin-4(3H)-one]	11 to 100
CC(C)N1CCN(c2ccc(-c3nc(-c4cc(F)c5c(=O)[nH]cc(Cl)c5c4)c(N)nc3F)cc2)CC1 [Example I-90, 6-(3-amino-5-fluoro-6-(4-(4-isopropylpiperazin-1-yl)phenyl)pyrazin-2-yl)-4-chloro-8-fluoroisoquinolin-1(2H)-one]	0.1 to 10
CCN(C)Cc1c(N2CCOCC2)ccc(-c2nc(-c3cc(F)c4c(c3)CCNC4=O)c(N)nc2F)c1F [Example I-247, 6-(3-amino-6-(3-((ethyl(methyl)amino)methyl)-2-fluoro-4-morpholinophenyl)-5-fluoropyrazin-2-yl)-8-fluoro-3,4-dihydroisoquinolin-1(2H)-one]	11 to 100
Nc1nc(F)c(-c2ccc(N3CCN(CC4CC4)CC3)cc2)nc1-c1ccc2c(c1)C1(CC1)CNC2=O [Example I-108, 6′-(3-amino-6-(4-(4-(cyclopropylmethyl)piperazin-1-yl)phenyl)-5-fluoropyrazin-2-yl)-2′,3′-dihydro-1′H-spiro[cyclopropane-1,4′-isoquinolin]-1′-one]	0.1 to 10
CCN(C)Cc1cc(-c2nc(-c3ccc4c(=O)[nH]cc(F)c4c3)c(N)nc2F)ccc1OC [Example I-300, 6-(3-amino-6-(3-((ethyl(methyl)amino)methyl)-4-methoxyphenyl)-5-fluoropyrazin-2-yl)-4-fluoroisoquinolin-1(2H)-one]	11 to 100
CN(C)[C@@H]1CCOc2ccc(-c3nc(-c4cc5c(cc4F)C(=O)NCC5)c(N)nc3F)cc21 [Example I-288, (R)-6-(3-amino-6-(4-(dimethylamino)chroman-6-yl)-5-fluoropyrazin-2-yl)-7-fluoro-3,4-dihydroisoquinolin-1(2H)-one]	11 to 100
Nc1nc(F)c(-c2ccc(N3CCN(CC4CC4)CC3)cc2)nc1-c1cc2c(F)c[nH]c(=O)c2cc1F [Example I-141, 6-(3-amino-6-(4-(4-(cyclopropylmethyl)piperazin-1-yl)phenyl)-5-fluoropyrazin-2-yl)-4,7-difluoroisoquinolin-1(2H)-one]	0.1 to 10
CN(C)Cc1cc(-c2nc(-c3ccc4c(=O)[nH]cc(F)c4c3)c(N)nc2F)cc(F)c1N1CCOCC1 [Example I-265, 6-(3-amino-6-(3-((dimethylamino)methyl)-5-fluoro-4-morpholinophenyl)-5-fluoropyrazin-2-yl)-4-fluoroisoquinolin-1(2H)-one]	0.1 to 10
CC(C)N1CCN(c2ccc(-c3nc(-c4ccc5c(c4)C4(CC4)NCC5=O)c(N)nc3F)cc2)CC1 [Example I-260, 7′-(3-amino-5-fluoro-6-(4-(4-isopropylpiperazin-1-yl)phenyl)pyrazin-2-yl)-2′,3′-dihydro-4′H-spiro[cyclopropane-1,1′-isoquinolin]-4′-one]	101 to 1000
Cc1nc2cc(-c3nc(-c4ccc(C5CCOCC5)c(CN5CCC[C@H]5C)c4)c(F)nc3N)cc(F)c2c(=O)[nH]1 [Example I-217, (R)-7-(3-amino-5-fluoro-6-(3-((2-methylpyrrolidin-1-yl)methyl)-4-(tetrahydro-2H-pyran-4-yl)phenyl)pyrazin-2-yl)-5-fluoro-2-methylquinazolin-4(3H)-one]	11 to 100
Cc1c[nH]c(=O)c2ccc(-c3nc(-c4ccc(O)c(C(C)N(C)C)c4)c(F)nc3N)cc12 (stereo not drawn) [Example I-304, 6-(3-amino-6-(3-(1-(dimethylamino)ethyl)-4-hydroxyphenyl)-5-fluoropyrazin-2-yl)-4-methylisoquinolin-1(2H)-one]	0.1 to 10
CN(C)Cc1cc(-c2nc(-c3ccc4c(=O)[nH]cc(F)c4c3)c(N)nc2F)cc2c1OCCO2 [Example I-269, 6-(3-amino-6-(8-((dimethylamino)methyl)-2,3-dihydrobenzo[b][1,4]dioxin-6-yl)-5-fluoropyrazin-2-yl)-4-fluoroisoquinolin-1(2H)-one]	0.1 to 10
CN(C)[C@@H]1COc2ccc(-c3nc(-c4ccc5c(=O)[nH]cc(F)c5c4)c(N)nc3F)cc21 [Example I-251, (S)-6-(3-amino-6-(3-(dimethylamino)-2,3-dihydrobenzofuran-5-yl)-5-fluoropyrazin-2-yl)-4-fluoroisoquinolin-1(2H)-one]	0.1 to 10
Cc1[nH]c(=O)c2ccc(-c3nc(-c4ccc(N5CCN(C(C)C)CC5)cc4)c(F)nc3N)cc2c1Cl [Example I-43, 6-(3-amino-5-fluoro-6-(4-(4-isopropylpiperazin-1-yl)phenyl)pyrazin-2-yl)-4-chloro-3-methylisoquinolin-1(2H)-one]	0.1 to 10
CN(C)Cc1cc(-c2nc(-c3ccc4c(=O)[nH]cc(F)c4c3)c(N)nc2F)cc2c1OCCC2 [Example I-268, 6-(3-amino-6-(8-((dimethylamino)methyl)chroman-6-yl)-5-fluoropyrazin-2-yl)-4-fluoroisoquinolin-1(2H)-one]	0.1 to 10
Cc1[nH]c(=O)c2cc(F)c(-c3nc(-c4ccc(N5CCN(C(C)C)CC5)cc4)c(F)nc3N)cc2c1F [Example I-168, 6-(3-amino-5-fluoro-6-(4-(4-isopropylpiperazin-1-yl)phenyl)pyrazin-2-yl)-4,7-difluoro-3-methylisoquinolin-1(2H)-one]	0.1 to 10
Nc1nc(F)c(-c2ccc(N3CCN(CC4CC4)CC3)cc2)nc1-c1ccc2c(=O)[nH]cc(F)c2c1 [Example I-84, 6-(3-amino-6-(4-(4-(cyclopropylmethyl)piperazin-1-yl)phenyl)-5-fluoropyrazin-2-yl)-4-fluoroisoquinolin-1(2H)-one]	0.1 to 10

Next, values leading:

IC50 [nM]	SMILES
0.1 to 10	COC1CN(Cc2cc(-c3nc(-c4cc5c(cc4F)C(=O)NCC5)c(N)nc3F)ccc2N2CCOCC2)C1 [Example I-189, 6-(3-amino-5-fluoro-6-(3-((3-methoxyazetidin-1-yl)methyl)-4-morpholinophenyl)pyrazin-2-yl)-7-fluoro-3,4-dihydroisoquinolin-1(2H)-one]
0.1 to 10	Nc1nc(F)c(-c2ccc(N3CCN(C4CCC4)CC3)cc2)nc1-c1ccc2c(c1)CCNC2=O [Example I-49, 6-(3-amino-6-(4-(4-cyclobutylpiperazin-1-yl)phenyl)-5-fluoropyrazin-2-yl)-3,4-dihydroisoquinolin-1(2H)-one]
11 to 100	COC1CCN(Cc2cc(-c3nc(-c4ccc5c(c4)CCNC5=O)c(N)nc3F)ccc2N2CCOCC2)CC1 [Example I-138, 6-(3-amino-5-fluoro-6-(3-((4-methoxypiperidin-1-yl)methyl)-4-morpholinophenyl)pyrazin-2-yl)-3,4-dihydroisoquinolin-1(2H)-one]
0.1 to 10	CO[C@@H]1CCN(Cc2cc(-c3nc(-c4cc5c(cc4F)C(=O)NCC5)c(N)nc3F)ccc2N2CCOCC2)C1 [Example I-152, (R)-6-(3-amino-5-fluoro-6-(3-((3-methoxypyrrolidin-1-yl)methyl)-4-morpholinophenyl)pyrazin-2-yl)-7-fluoro-3,4-dihydroisoquinolin-1(2H)-one]
0.1 to 10	COC1CN(Cc2cc(-c3nc(-c4cc5c(cc4F)C(=O)NCC5)c(N)nc3F)ccc2C2CCOCC2)C1 [Example I-190, 6-(3-amino-5-fluoro-6-(3-((3-methoxyazetidin-1-yl)methyl)-4-(tetrahydro-2H-pyran-4-yl)phenyl)pyrazin-2-yl)-7-fluoro-3,4-dihydroisoquinolin-1(2H)-one]
0.1 to 10	Nc1nc(F)c(-c2ccc(C3CCOCC3)c(CN3CCCC3)c2)nc1-c1cc(F)c2c(c1)CCNC2=O [Example I-149, 6-(3-amino-5-fluoro-6-(3-(pyrrolidin-1-ylmethyl)-4-(tetrahydro-2H-pyran-4-yl)phenyl)pyrazin-2-yl)-8-fluoro-3,4-dihydroisoquinolin-1(2H)-one]
11 to 100	C[C@H]1CCCN1Cc1cc(-c2nc(-c3cc(F)c4c(c3)CCNC4=O)c(N)nc2F)ccc1C1CCOCC1 [Example I-220, (S)-6-(3-amino-5-fluoro-6-(3-((2-methylpyrrolidin-1-yl)methyl)-4-(tetrahydro-2H-pyran-4-yl)phenyl)pyrazin-2-yl)-8-fluoro-3,4-dihydroisoquinolin-1(2H)-one]
0.1 to 10	COC1CN(Cc2cc(-c3nc(-c4cc(F)c5c(c4)CCNC5=O)c(N)nc3F)ccc2C2CCOCC2)C1 [Example I-191, 6-(3-amino-5-fluoro-6-(3-((3-methoxyazetidin-1-yl)methyl)-4-(tetrahydro-2H-pyran-4-yl)phenyl)pyrazin-2-yl)-8-fluoro-3,4-dihydroisoquinolin-1(2H)-one]
0.1 to 10	C[C@@H]1CN(c2ccc(-c3nc(-c4cc(F)c5c(c4)CCNC5=O)c(N)nc3F)cc2CN(C)C)CCO1 [Example I-177, (R)-6-(3-amino-6-(3-((dimethylamino)methyl)-4-(2-methylmorpholino)phenyl)-5-fluoropyrazin-2-yl)-8-fluoro-3,4-dihydroisoquinolin-1(2H)-one]
0.1 to 10	C[C@H]1CN(c2ccc(-c3nc(-c4ccc5c(c4)CCNC5=O)c(N)nc3F)cc2CN2CCC2)CCO1 [Example I-214, (S)-6-(3-amino-6-(3-(azetidin-1-ylmethyl)-4-(2-methylmorpholino)phenyl)-5-fluoropyrazin-2-yl)-3,4-dihydroisoquinolin-1(2H)-one]
